Measurements from patent EP0286491B1, “Antimalarial aminoquinoline derivatives, method for their preparation and pharmaceutical composition containing them” (LA REGION WALLONNE, priority 1987, dated 1988).
Entries after “also recorded” stand apart in the source; their conditions may differ.

How the values were obtained:
[1] = Acute toxicity after a single i.v. injection in non-infected mice; assay type: in vivo; conditions: for toxicité aiguë compared with Pq: qualitative comparison with primaquine; for LD50 / MTD: mouse, in vivo, iv; for LD50: mice, read-out: dose léthale 50 % (LD₅₀); for MTD: highest dose with weight loss <= 5 % over five days, read-out: dose maximale tolérée (MTD)
Description: La toxicité aiguë en fonction de la dose unique administrée est déterminée sur des souris de 18 à 22 g. Une série de dilutions de chaque composé est injectée par voie intraveineuse à des groupes de 10 souris.
^a : les dérivés sont administrés par vote i.v. trois heures après l'inoculation des sporozoïtes. Les concentrations sont toujours exprimées en mg Pq diphosphate/kg. ^b : la dose maximale tolérée est définie code la dose la plus élevée induisant une perte de poids inférieure ou égale & 5 % du poids initial pendant une période de cinq jours suivant l'injection i.v. ^c : dose léthale tuant 50 % des souris en une seule injection i.v. ^d : dose prophylactique causale permettant de guérir 50 % des souris injectées. ^e : index thérapeutique défini par le rapport LD₅₀/CPD₅₀.

[2] = test system: P. berghei berghei (ANKA); assay: Causal prophylactic activity in the rodent malaria model (sporozoite-infected mice, single i.v. treatment 3 h after inoculation); assay type: in vivo, souris Swiss OF1; conditions: for index Pq (CPD₅₀ de la Pq/CPD₅₀ du composé): ratio of CPD₅₀ of Pq to CPD₅₀ of the derivative; for CPD₅₀ (dose prophylactique causale guérissant 50 % des animaux infectés) / ED50: dose as mg Pq diphosphate/kg; for activité thérapeutique compared with Pq: qualitative comparison with primaquine; for ED50: read-out: CPD₅₀ (dose prophylactique causale guérissant 50 % des animaux infectés); for index thérapeutique (LD₅₀/CPD₅₀): ratio LD₅₀/CPD₅₀
Description: Le modèle de la malaria du rongeur, Plasmodium berghei-Anopheles stephensi-souris, mis au point par MOST, H., HERMAN, R. & SCHOENFELD, C. (1967) Am. J. Trop. Med. Hyg. 16, 572-575, permet de déterminer l'activité prophylactique causale (schizonticide tissulaire) de nouveaux composés thérapeutiques. La procédure utilisée est dérivée de celle de MOST, H. & MONTUORI, W.A. (1975) Am. J. Trop. Med. Hyg. 24, 179-182. Il s'agit du système P. berghei berghei (ANKA)- Anopheles stephensi-souris Swiss OF1. La souche ANKA de P. b. berghei est entretenue cycliquement sur Anopheles stephensi. La souche de souris Swiss OF1 est particulièrement sensible à P. b. berghei qui produit une infection toujours mortelle.
Les moustiques femelles (80 à 100 individus par préparation) sont débarassés de leurs pattes, ailes et abdomen, puis homogénéisés à 4°C à l'aide d'un potter en verre, dans du milieu M 199 (GIBCO) contenant 10 % de sérum foetal de veau. La suspension de sporozoïtes est ensuite purifiée des débris du moustique par deux centrifugations successives ( 2 min. à 50 g et 5 min. à 200 g) et le surnageant recueilli est conservé à 4°C. Après comptage dans une chambre de Petroff-Hausser, le nombre de parasites est ajusté par dilution avec le même milieu froid, à la densité de 2 x 10⁵ sporozoïtes/ml. L'ensemble de la procédure est toujours effectuée dans un maximum de 35 minutes et permet de préserver la viabilité et l'infectivité des sporozoïtes.
Un volume de 0,5 ml de la suspension contenant 10⁵ sporozoïtes est injectée i.v. aux souris Swiss OF1 femelles de 18 à 22 g utilisées pour les tests thérapeutiques.
Des groupes de 20 à 25 souris infectées comme décrit ci-dessus sont traités en une seule injection intraveineuse de primaquine diphosphate (Pq) ou des dérivés monoacyls et aminoacides de la primaquine sous formes dichlorhydrates (X-Pq) trois heures après l'inoculation des sporozoïtes. Le volume injecté est ajusté en fonction du poids de la souris, à raison de 0,5 ml pour un poids de 25 g. Les composés sont dilués dans du tampon phosphate salin (PBS) pH 7.0 et le pH est ajusté à 7.0. Les souris infectées mais non traitées (5 par groupe) reçoivent le tampon seul et servent à contrôler l'infectivité des sporozoïtes.
Les souris expérimentales sont gardées durant une période de 50 jours. Le développement de la parasitémie est suivi en examinant quotidiennement des frottis de sang, colorés 60 min. au Giemsa à 5 % dans du tampon Sörensen à pH 7,2, à partir du 5ème jour et ce jusqu'au 15ème jour. Le nombre d'animaux infectés peut ainsi être déterminé. Ces résultats permettent d'établir la survie à long terme (LTS, le nombre de souris survivantes non parasitées sur le nombre de souris infectées et traitées).
L'activité prophylactique causale (CPD₅₀) est obtenue par l'analyse des logits de la réponse (exprimée en % de LTS) en fonction de la dose (mg Pq/kg).
Les animaux infectés à l'aide de sporozoïtes de P. berghei sont traités trois heures après avec une seule injection des composés par voie intraveineuse. Ce test permet de définir l'activité prophylactique causale des composés ou la dose permettant de guérir 50 % des animaux infectés (CPD₅₀). La dose est toujours exprimée en mg de Pq diphosphate par kg.

[3] = single i.v. injection 3 h after sporozoite inoculation
[4] = Plasmodium berghei, iv, single i.v. injection 3 h after sporozoite inoculation

Compound | toxicité aiguë compared with Pq [1] | index Pq (CPD₅₀ de la Pq/CPD₅₀ du composé) [2] | CPD₅₀ (dose prophylactique causale guérissant 50 % des animaux infectés) [2, 3] | activité thérapeutique compared with Pq [2] | dose minimale effective [2, 3] | dose totalement curative (100 %) [2, 3] | other results
COc1cc(NC(C)CCCNC(=O)[C@@H](C)N)c2ncccc2c1 (stereo partly drawn) [D-alanine, N-1-D-alanyl, N-4-(méthoxy-6-quinolinyl-8)pentanediamine-1,4] | très faible toxicité | – | – | – | – | – | –
COc1cc(NC(C)CCCNC(=O)[C@H](CC(C)C)NC(=O)[C@H](C)N)c2ncccc2c1 (stereo partly drawn) [L-leucyl-L-alanyl-Pq, N-1-L-Alanyl-L-Leucyl, N-4-(Méthoxy-6-quinolinyl-8) pentanediamine-1,4] | meilleure réduction de toxicité | – | – | – | – | – | –
L-glutamine | – | 1,9 | 10 mg Pq/kg | – | – | – | –
COc1cc(NC(C)CCCNC(=O)C(Cc2ccccc2)NC(=O)CCC(=O)O)c2ncccc2c1 [succinyl-L-phenylalanyl-Pq] | – | – | – | nettement moins actifs que la Pq | – | – | –
COc1cc(NC(C)CCCNC(=O)[C@H](C)N)c2ncccc2c1 (stereo partly drawn) [L-alanyl-Pq, N-1-L-alanyl, N-4-(méthoxy-6-quinolinyl-8) pentanediamine-1,4] | meilleure réduction de toxicité; also recorded: moins toxique que la primaquine | 3,0 | 6,3 mg Pq/kg | presque quatre fois supérieure à celle de la primaquine base | 4 mg Pq/kg | 9,9 mg Pq/kg | –
COc1cc(NC(C)CCCNC(=O)[C@@H](N)Cc2ccccc2)c2ncccc2c1 (stereo partly drawn) [L-phenylalanyl-Pq, N-1-L-phénylalanyl , N-4(methoxy-6-quinolinyl-8) pentanediamine-1,4] | voisine de celle de la Pq | 3,1 | 6,1 mg Pq/kg | – | 1,8 mg Pq/kg | 21,3 mg Pq/kg | –
COc1cc(NC(C)CCCNC(=O)CCCC(=O)O)c2ncccc2c1 (stereo not shown) [glutarryl-Pq] | – | – | – | nettement moins actifs que la Pq | – | – | –
COc1cc(NC(C)CCCNC(=O)[C@@H](N)CCC(=O)O)c2ncccc2c1 (stereo partly drawn) [L-glutamyl-Pq, N-1-L-glutamyl, N-4-(méthoxy-6-quinolinyl-8) pentadiamine-1,4] | le moins toxique; also recorded: meilleure réduction de toxicité | 2,2 | – | – | – | – | LD₅₀ relative to the LD₅₀ of Pq ([1]; fold higher than Pq): 4 x; MTD relative to the MTD of Pq ([1]; fold higher than Pq): 5 x; LD50 ([1]; single i.v. injection): 136 mg/kg; MTD ([1]; single i.v. injection): 124 mg/kg; ED50 [2, 4]: 8.5 mg/kg; index thérapeutique (LD₅₀/CPD₅₀) [2]: 16,1
COc1cc(NC(C)CCCNC(=O)[C@@H](N)CC(C)C)c2ncccc2c1 (stereo partly drawn) [L-leucyl-Pq, N-1-L-leucyl, N-4-(méthoxy-6-quinolinyl-8)pentanediamine-1,4] | – | 1,2 | – | – | 7,6 mg Pq/kg | 30 mg Pq/kg | CPD₅₀ ([2]; single i.v. injection 3 h after sporozoite inoculation, unit printed without mg): 16,2 Pq/kg
COc1cc(NC(C)CCCNC(=O)[C@@H](N)CCCCN)c2ncccc2c1 (stereo partly drawn) [L-lysyl-Pq] | – | 4,8 | 3,9 mg Pq/kg | – | 1,7 mg Pq/kg | 8,2 mg Pq/kg | plus toxique que la primaquine ([1]; acute toxicity, fold versus primaquine): 3 x; dose minimale toxique ([1]; single i.v. injection): 8,2 mg Pq/kg
COc1cc(NC(C)CCCNC(=O)C(C)NC(=O)CCC(=O)O)c2ncccc2c1 [succinyl-L-alanyl-Pq] | – | – | – | nettement moins actifs que la Pq | – | – | –
COc1cc(NC(C)CCCN)c2ncccc2c1 (stereo not shown) [Pq, 6-méthoxy-8-(4-amino-1-méthylbutylamino)-quinoléine, reference compound] | – | – | – | – | – | – | toxicité dès ([1]; dose from which toxicity is seen, i.v.): ≥ 25 mg/kg; LD50 ([1]; single i.v. injection): 31 mg/kg; MTD ([1]; single i.v. injection): 25.7 mg/kg; ED50 [2, 4]: 18.7 mg/kg; minimal effective dose ([2]; Plasmodium berghei, iv, single i.v. injection 3 h after sporozoite inoculation, read-out: dose minimale effective): 10.4 mg/kg; activité thérapeutique ([2]; at 25 mg/kg i.v.): 75%; index thérapeutique (LD₅₀/CPD₅₀) [2]: 1,7
